Reference: PMC4279382, “Antitumor activity of S116836, a novel tyrosine kinase inhibitor, against imatinib-resistant FIP1L1-PDGFRα-expressing cells” (Oncotarget, 2014)

How the values were obtained:
Test in all cases: KINOMEscan competition binding, single concentration
Conditions in all cases: read-out: % Ctrl @ 100nM
ABL1-nonphosphorylated [1] = biological target: T1, ABL1-nonphosphorylated (Homo sapiens, UniProt P00519)
T1 construct: KINOMEscan (Ambit) panel kinase, nonphosphorylated form
Source text: (§1) KINOMEscan competition binding, single concentration on ABL1-nonphosphorylated

ABL1-nonphosphorylated [2] = biological target: T2, ABL1-nonphosphorylated (Homo sapiens, UniProt P00519, T315I)
T2 construct: KINOMEscan (Ambit) panel kinase, nonphosphorylated form
Source text: as §1

BLK = biological target: T3, BLK (Homo sapiens, UniProt P51451)
T3 construct: KINOMEscan (Ambit) panel kinase
T3 sequence (P51451 2-505): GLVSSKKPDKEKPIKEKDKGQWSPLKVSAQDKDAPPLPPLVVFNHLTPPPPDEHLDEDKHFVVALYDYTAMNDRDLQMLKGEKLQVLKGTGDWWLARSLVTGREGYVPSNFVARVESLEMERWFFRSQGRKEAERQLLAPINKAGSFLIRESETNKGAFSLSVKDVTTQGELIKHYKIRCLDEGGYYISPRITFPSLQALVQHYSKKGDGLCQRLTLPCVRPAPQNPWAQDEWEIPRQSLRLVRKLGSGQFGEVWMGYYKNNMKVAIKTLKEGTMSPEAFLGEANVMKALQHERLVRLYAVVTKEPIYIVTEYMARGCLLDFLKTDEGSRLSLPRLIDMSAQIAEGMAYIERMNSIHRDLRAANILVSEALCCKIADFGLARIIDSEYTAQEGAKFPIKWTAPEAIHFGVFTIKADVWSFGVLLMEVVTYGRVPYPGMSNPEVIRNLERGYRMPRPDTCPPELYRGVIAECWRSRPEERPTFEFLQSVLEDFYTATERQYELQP
Source text: KINOMEscan competition binding, single concentration on BLK

LYN = biological target: T4, LYN (Homo sapiens, UniProt P07948)
T4 construct: KINOMEscan (Ambit) panel kinase
T4 sequence (P07948 2-512): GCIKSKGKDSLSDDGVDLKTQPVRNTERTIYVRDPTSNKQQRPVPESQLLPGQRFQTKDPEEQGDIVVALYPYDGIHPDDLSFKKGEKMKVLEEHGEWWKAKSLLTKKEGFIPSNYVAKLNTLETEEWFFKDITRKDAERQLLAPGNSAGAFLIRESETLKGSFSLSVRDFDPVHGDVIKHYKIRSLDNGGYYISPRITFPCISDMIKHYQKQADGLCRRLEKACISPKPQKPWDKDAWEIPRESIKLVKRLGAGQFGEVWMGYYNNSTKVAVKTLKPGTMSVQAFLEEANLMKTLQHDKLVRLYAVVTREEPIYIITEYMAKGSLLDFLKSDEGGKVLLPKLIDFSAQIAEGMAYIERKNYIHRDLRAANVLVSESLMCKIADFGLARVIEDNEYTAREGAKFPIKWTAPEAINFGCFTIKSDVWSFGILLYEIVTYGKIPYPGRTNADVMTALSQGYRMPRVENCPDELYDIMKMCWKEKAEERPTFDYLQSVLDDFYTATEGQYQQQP
Source text: KINOMEscan competition binding, single concentration on LYN

FLT3 = biological target: T5, FLT3 (Homo sapiens, UniProt P36888)
T5 construct: KINOMEscan (Ambit) panel kinase
T5 sequence (P36888 27-993): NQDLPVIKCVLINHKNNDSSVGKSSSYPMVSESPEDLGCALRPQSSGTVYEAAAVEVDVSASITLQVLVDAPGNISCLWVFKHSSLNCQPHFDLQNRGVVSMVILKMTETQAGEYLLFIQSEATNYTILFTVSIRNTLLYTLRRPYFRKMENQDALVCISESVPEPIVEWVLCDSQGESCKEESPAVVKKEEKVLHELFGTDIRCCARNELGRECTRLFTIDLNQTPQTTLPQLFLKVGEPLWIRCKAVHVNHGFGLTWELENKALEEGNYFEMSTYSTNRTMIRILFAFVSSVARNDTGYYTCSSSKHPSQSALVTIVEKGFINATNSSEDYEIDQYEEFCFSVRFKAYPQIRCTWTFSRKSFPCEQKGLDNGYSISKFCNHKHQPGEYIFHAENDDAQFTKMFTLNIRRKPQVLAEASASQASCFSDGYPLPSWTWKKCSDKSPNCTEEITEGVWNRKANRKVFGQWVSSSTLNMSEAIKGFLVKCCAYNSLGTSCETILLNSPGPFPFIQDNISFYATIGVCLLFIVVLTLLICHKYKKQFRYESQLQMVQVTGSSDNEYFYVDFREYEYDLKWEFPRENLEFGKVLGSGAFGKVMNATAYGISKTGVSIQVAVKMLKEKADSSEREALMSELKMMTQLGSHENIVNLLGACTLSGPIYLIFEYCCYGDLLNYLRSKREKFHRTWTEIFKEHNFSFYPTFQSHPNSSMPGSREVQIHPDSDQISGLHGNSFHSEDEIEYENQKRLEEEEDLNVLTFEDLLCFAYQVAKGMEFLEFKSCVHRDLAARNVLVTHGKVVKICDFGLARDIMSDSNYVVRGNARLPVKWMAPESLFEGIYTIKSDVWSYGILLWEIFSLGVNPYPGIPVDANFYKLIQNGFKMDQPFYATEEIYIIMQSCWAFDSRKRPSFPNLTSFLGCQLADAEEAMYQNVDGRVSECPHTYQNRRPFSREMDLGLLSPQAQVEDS
Source text: KINOMEscan competition binding, single concentration on FLT3

KIT = biological target: T6, KIT (Homo sapiens, UniProt P10721)
T6 construct: KINOMEscan (Ambit) panel kinase
Source text: KINOMEscan competition binding, single concentration on KIT

PLK1 = biological target: T7, PLK1 (Homo sapiens, UniProt P53350)
T7 construct: KINOMEscan (Ambit) panel kinase
T7 sequence (P53350 2-603): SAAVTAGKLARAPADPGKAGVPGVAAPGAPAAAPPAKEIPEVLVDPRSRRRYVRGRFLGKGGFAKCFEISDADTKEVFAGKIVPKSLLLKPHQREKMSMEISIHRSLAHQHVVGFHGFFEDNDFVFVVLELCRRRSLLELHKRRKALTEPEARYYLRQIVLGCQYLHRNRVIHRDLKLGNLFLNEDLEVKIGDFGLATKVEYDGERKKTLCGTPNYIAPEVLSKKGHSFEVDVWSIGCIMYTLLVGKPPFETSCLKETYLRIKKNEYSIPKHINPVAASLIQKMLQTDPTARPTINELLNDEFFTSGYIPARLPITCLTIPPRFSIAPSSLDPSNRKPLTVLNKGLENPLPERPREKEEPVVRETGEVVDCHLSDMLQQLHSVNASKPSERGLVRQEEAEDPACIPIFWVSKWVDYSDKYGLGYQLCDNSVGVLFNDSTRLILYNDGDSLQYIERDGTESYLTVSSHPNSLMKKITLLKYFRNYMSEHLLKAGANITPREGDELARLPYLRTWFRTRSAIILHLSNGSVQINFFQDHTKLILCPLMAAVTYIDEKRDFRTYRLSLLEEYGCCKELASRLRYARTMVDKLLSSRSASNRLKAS
Source text: KINOMEscan competition binding, single concentration on PLK1

PDGFRβ = biological target: T8, PDGFRβ (Homo sapiens, UniProt P09619)
T8 construct: gene PDGFRB; KINOMEscan (Ambit) panel kinase
T8 sequence (P09619 33-1106): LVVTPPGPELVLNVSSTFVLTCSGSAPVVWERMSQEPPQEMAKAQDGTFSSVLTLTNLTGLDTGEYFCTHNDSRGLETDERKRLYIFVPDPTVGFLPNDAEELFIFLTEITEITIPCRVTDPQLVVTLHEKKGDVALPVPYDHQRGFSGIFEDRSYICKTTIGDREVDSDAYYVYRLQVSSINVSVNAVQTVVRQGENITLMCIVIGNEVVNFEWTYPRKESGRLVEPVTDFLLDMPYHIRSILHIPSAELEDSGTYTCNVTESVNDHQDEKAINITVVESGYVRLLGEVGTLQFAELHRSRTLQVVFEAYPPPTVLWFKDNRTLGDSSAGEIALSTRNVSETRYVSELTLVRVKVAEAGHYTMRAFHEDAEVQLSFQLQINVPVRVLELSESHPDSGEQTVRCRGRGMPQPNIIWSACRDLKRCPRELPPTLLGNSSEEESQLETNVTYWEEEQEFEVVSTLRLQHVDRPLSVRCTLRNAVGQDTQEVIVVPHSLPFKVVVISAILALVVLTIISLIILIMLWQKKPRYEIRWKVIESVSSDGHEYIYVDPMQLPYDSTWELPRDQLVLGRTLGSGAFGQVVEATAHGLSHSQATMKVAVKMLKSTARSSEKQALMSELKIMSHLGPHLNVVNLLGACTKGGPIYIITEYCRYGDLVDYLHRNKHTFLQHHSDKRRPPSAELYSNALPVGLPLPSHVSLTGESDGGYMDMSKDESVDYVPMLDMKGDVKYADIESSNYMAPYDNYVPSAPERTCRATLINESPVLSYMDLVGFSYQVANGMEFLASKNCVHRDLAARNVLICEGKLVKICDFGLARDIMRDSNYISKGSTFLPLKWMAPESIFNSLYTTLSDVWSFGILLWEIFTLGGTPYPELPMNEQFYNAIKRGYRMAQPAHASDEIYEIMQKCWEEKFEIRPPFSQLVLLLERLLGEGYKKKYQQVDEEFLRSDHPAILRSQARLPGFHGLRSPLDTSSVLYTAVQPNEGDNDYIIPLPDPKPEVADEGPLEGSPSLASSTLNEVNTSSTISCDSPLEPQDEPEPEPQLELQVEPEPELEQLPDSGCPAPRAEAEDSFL
Source text: KINOMEscan competition binding, single concentration on PDGFRβ

SRC = biological target: T9, SRC (Homo sapiens, UniProt P12931)
T9 construct: KINOMEscan (Ambit) panel kinase
T9 sequence (P12931 2-536): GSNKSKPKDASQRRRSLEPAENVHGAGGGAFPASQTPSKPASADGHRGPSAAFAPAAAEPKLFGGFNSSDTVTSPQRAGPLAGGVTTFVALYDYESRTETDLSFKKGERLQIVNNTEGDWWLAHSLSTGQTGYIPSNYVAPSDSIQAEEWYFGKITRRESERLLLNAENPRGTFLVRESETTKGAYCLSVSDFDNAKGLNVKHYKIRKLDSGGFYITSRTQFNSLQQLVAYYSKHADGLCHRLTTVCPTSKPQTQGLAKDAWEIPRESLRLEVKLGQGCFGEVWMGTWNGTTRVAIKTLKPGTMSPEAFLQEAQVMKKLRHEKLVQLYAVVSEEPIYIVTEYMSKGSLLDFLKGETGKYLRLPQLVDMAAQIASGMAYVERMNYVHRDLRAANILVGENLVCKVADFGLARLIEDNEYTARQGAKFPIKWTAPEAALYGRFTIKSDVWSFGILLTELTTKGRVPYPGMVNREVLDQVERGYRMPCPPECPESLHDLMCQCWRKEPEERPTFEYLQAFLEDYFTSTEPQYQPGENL
Source text: KINOMEscan competition binding, single concentration on SRC

CDK2 = biological target: T10, CDK2 (Homo sapiens, UniProt P24941)
T10 construct: KINOMEscan (Ambit) panel kinase; no cyclin named
Source text: KINOMEscan competition binding, single concentration on CDK2

HCK = biological target: T11, HCK (Homo sapiens, UniProt P08631)
T11 construct: KINOMEscan (Ambit) panel kinase
T11 sequence (P08631 2-526): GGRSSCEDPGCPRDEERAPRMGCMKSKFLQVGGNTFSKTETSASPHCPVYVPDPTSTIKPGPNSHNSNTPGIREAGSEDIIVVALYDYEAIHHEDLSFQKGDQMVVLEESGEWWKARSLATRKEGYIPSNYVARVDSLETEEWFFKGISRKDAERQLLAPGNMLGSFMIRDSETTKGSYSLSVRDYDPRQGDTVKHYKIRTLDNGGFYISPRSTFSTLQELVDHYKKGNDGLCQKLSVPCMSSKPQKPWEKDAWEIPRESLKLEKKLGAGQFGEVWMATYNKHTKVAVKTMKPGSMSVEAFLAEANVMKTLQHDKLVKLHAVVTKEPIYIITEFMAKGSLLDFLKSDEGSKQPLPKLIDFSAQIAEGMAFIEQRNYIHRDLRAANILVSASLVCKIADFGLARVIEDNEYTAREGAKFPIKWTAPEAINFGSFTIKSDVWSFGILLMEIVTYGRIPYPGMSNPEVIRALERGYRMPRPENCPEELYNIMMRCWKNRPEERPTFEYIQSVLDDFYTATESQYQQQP
Source text: KINOMEscan competition binding, single concentration on HCK

PDGFRα = biological target: T12, PDGFRα (Homo sapiens, UniProt P16234)
T12 construct: gene PDGFRA; KINOMEscan (Ambit) panel kinase
Source text: KINOMEscan competition binding, single concentration on PDGFRα

TIE2 = biological target: T13, TIE2 (Homo sapiens, UniProt Q02763)
T13 construct: gene TEK; KINOMEscan (Ambit) panel kinase
T13 sequence (Q02763 23-1124): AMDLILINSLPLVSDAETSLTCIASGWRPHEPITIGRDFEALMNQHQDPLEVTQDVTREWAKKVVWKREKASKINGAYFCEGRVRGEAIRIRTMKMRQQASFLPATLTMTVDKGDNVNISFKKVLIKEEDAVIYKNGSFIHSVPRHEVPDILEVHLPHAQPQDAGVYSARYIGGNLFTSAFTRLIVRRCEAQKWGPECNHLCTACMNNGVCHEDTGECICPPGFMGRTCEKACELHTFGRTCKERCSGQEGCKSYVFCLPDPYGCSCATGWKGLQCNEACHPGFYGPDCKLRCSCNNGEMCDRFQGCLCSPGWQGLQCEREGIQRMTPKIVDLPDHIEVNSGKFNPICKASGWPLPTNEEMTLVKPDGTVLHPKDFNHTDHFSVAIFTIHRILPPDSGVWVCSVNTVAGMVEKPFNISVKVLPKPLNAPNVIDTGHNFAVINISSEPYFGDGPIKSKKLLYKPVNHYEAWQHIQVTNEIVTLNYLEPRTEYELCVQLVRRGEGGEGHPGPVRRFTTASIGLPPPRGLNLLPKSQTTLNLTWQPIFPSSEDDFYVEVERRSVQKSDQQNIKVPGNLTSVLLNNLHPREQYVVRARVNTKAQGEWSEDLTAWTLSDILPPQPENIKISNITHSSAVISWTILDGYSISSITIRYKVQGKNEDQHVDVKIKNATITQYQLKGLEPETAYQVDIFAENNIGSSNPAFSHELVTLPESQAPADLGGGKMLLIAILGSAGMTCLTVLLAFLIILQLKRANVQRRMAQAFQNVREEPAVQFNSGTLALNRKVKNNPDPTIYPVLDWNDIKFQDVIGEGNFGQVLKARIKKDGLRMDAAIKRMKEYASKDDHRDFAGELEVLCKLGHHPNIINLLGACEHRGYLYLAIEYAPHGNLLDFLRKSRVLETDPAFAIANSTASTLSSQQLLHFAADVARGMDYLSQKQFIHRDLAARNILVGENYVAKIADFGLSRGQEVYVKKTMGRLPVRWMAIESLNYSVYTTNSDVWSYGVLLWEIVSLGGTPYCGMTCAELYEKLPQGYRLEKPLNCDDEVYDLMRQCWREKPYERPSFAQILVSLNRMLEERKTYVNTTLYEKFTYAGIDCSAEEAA
Source text: KINOMEscan competition binding, single concentration on TIE2

LCK = biological target: T14, LCK (Homo sapiens, UniProt P06239)
T14 construct: KINOMEscan (Ambit) panel kinase
Source text: KINOMEscan competition binding, single concentration on LCK

## Cc1ccc(C(=O)Nc2cc(-n3ccnc3)cc(C(F)(F)F)c2)cc1C#Cc1cnc(NC2CC2)nc1 [S116836]
ABL1-nonphosphorylated [1]
  remaining binding at 0.1 µM: 18%
ABL1-nonphosphorylated [2]
  remaining binding at 0.1 µM: 20%
BLK
  remaining binding at 0.1 µM: 10%
LYN
  remaining binding at 0.1 µM: 16%
FLT3
  remaining binding at 0.1 µM: 1.8%
KIT
  remaining binding at 0.1 µM: 6.8%
PLK1
  remaining binding at 0.1 µM: 100%
PDGFRβ
  remaining binding at 0.1 µM: 3.3%
SRC
  remaining binding at 0.1 µM: 33%
CDK2
  remaining binding at 0.1 µM: 99%
HCK
  remaining binding at 0.1 µM: 6.2%
PDGFRα
  remaining binding at 0.1 µM: 26%
TIE2
  remaining binding at 0.1 µM: 0.85%
LCK
  remaining binding at 0.1 µM: 3.4%
